From the NIST ThermoML archive (doi:10.1016/j.fluid.2012.11.018)
Numbers after ± are expanded uncertainties.

Legend:
[1] = 298.2 K; 101.33 kPa; Liquid; Vibrating tube method
[2] = refractive index (Na D-line) (dimensionless); conditions: 298.2 K; 101.33 kPa; Liquid; Standard Abbe refractometry

refractive index [2]	Structure (SMILES)	mass density [1]
1.4456 ± 0.0004	ClC(Cl)Cl [trichloromethane]	1480.34 ± 0.34 kg/m3
1.333 ± 0.0004	O [water]	

Structure (SMILES)	refractive index [2]	mass density [1]
CC1CN1 (stereo not given) [2-methylaziridine]	1.4116 ± 0.0006	802.23 ± 0.8 kg/m3
